Measurements from patent US12466800B2, “N-((1,2,3,5,6,7-hexahydro-S-indacen-4-yl)carbamoyl)-4, 5, 6, 7-tetrahydrobenzofuran-2-sulfonamide derivatives and related compounds as NLPR3 modulators for the treatment of multiple sclerosis (MS)” (Zomagen Biosciences Ltd, priority 2019, dated 2025).

The molecules below were run on IL-1b (assay: Mouse BMDM IL-1b Assay). Conditions: Macrophage; mouse bone marrow derived macrophages (C57BL6); 200 ng/mL LPS 3 h, compound 30 min, 5 mM ATP 45 min; IL-1b ELISA of supernatant.
Type: cell-based
Description: Example 20: Mouse BMDM IL-1b Assay
Mouse bone marrow cells from C57BL6 tibia and femur were culture in complete Isocov's Media supplemented with 20 ng/mL MCSF (BMDM media) at a density of 50 million cells/15 cm Petri dish. Fresh media was changed every 3 days, and bone marrow derived macrophages were collected, washed, and counted on day 7. Cells were seeded into 96 well plates at a density of 5×10^4 cells per well in 100 uL of BMDM media and cultured overnight. The cells were stimulated at 37° C. with 200 ng/mL Ultrapure LPS-B5 for 3 hours before pre-diluted compounds were added. 30 minutes after compound addition, 5 mM ATP was added for the secondary stimulation for 45 minutes. After stimulation, the plates were briefly spun down, and 50 uL of supernatant was harvested from each well. ELISA for mouse IL-1b was performed with 1:10 and 1:100 diluted supernatant using pre-coated kits. IL-1b concentrations were calculated based on pre-titrated standards, and compound inhibition IC50 is generated using the Levenberg Marquardt damped lease-square method.
`CC1(O)CCCc2oc(S(=O)(=O)NC(=O)Nc3c4c(cc5c3CCC5)CCC4)cc21` (stereo not shown) [Compound 5, N-((1,2,3,5,6,7-hexahydro-s-indacen-4-yl)carbamoyl)-4-hydroxy-4-methyl-4,5,6,7-tetrahydrobenzofuran-2-sulfonamide] was tested, and the IC50 was less than 100 nM. With `O=C(Nc1c2c(cc3c1CCC3)CCC2)NS(=O)(=O)c1cc2c(o1)CCCC2=O` [Compound 6] the IC50 was 100 to 1000 nM. `O=C(Nc1c2c(cc3c1CCC3)CCC2)NS(=O)(=O)c1cc2c(o1)CCCC2O` (stereo not shown) [Compound 8, N-((1,2,3,5,6,7-hexahydro-s-indacen-4-yl)carbamoyl)-4-hydroxy-4,5,6,7-tetrahydrobenzofuran-2-sulfonamide] was tested, and the IC50 was less than 100 nM. For `CC1(C)CCc2oc(S(=O)(=O)NC(=O)Nc3c4c(cc5c3CCC5)CCC4)cc2C1(C)O` (stereo not shown) [Compound 11, N-((1,2,3,5,6,7-hexahydro-s-indacen-4-yl)carbamoyl)-4-hydroxy-4,5,5-trimethyl-4,5,6,7-tetrahydrobenzofuran-2-sulfonamide], the IC50 was less than 100 nM. With `CC1(C)CCC(C)(O)c2cc(S(=O)(=O)NC(=O)Nc3c4c(cc5c3CCC5)CCC4)oc21` (stereo not shown) [Compound 12, N-((1,2,3,5,6,7-hexahydro-s-indacen-4-yl)carbamoyl)-4-hydroxy-4,7,7-trimethyl-4,5,6,7-tetrahydrobenzofuran-2-sulfonamide] the IC50 was less than 100 nM. Molecule `CC1(C)CCc2oc(S(=O)(=O)NC(=O)Nc3c4c(cc5c3CCC5)CCC4)cc2C1=O` [Compound 13, N-((1,2,3,5,6,7-hexahydro-s-indacen-4-yl)carbamoyl)-5,5-dimethyl-4-oxo-4,5,6,7-tetrahydrobenzofuran-2-sulfonamide] has an IC50 of 100 to 1000 nM. `CC1(C)CCc2oc(S(=O)(=O)NC(=O)Nc3c4c(cc5c3CCC5)CCC4)cc2C1O` (stereo not shown) [Compound 14, N-((1,2,3,5,6,7-hexahydro-s-indacen-4-yl)carbamoyl)-4-hydroxy-5,5-dimethyl-4,5,6,7-tetrahydrobenzofuran-2-sulfonamide] was tested, and the IC50 was less than 100 nM. `CC1Cc2oc(S(=O)(=O)NC(=O)Nc3c4c(cc5c3CCC5)CCC4)cc2C(C)(O)C1` (stereo not shown) [Compound 16, N-((1,2,3,5,6,7-hexahydro-s-indacen-4-yl)carbamoyl)-4-hydroxy-4,6-dimethyl-4,5,6,7-tetrahydrobenzofuran-2-sulfonamide] showed an IC50 of less than 100 nM. Molecule `CC1CC(=O)c2cc(S(=O)(=O)NC(=O)Nc3c4c(cc5c3CCC5)CCC4)oc2C1` (stereo not shown) [Compound 17, N-((1,2,3,5,6,7-hexahydro-s-indacen-4-yl)carbamoyl)-6-methyl-4-oxo-4,5,6,7-tetrahydrobenzofuran-2-sulfonamide] has an IC50 of 100 to 1000 nM. `CC1Cc2oc(S(=O)(=O)NC(=O)Nc3c4c(cc5c3CCC5)CCC4)cc2C(O)C1` (stereo not shown) [Compound 18, N-((1,2,3,5,6,7-hexahydro-s-indacen-4-yl)carbamoyl)-4-hydroxy-6-methyl-4,5,6,7-tetrahydrobenzofuran-2-sulfonamide] showed an IC50 of 100 to 1000 nM. Molecule `CC1(C)Cc2oc(S(=O)(=O)NC(=O)Nc3c4c(cc5c3CCC5)CCC4)cc2C(C)(O)C1` (stereo not shown) [Compound 20, N-((1,2,3,5,6,7-hexahydro-s-indacen-4-yl)carbamoyl)-4-hydroxy-4,6,6-trimethyl-4,5,6,7-tetrahydrobenzofuran-2-sulfonamide] has an IC50 of less than 100 nM. Work on `CC1(C)CC(=O)c2cc(S(=O)(=O)NC(=O)Nc3c4c(cc5c3CCC5)CCC4)oc2C1` [Compound 21, N-((1,2,3,5,6,7-hexahydro-s-indacen-4-yl)carbamoyl)-6,6-dimethyl-4-oxo-4,5,6,7-tetrahydrobenzofuran-2-sulfonamide] yielded an IC50 of 100 to 1000 nM. Work on `CC1(C)Cc2oc(S(=O)(=O)NC(=O)Nc3c4c(cc5c3CCC5)CCC4)cc2C(O)C1` (stereo not shown) [Compound 22, N-((1,2,3,5,6,7-hexahydro-s-indacen-4-yl)carbamoyl)-4-hydroxy-6,6-dimethyl-4,5,6,7-tetrahydrobenzofuran-2-sulfonamide] yielded an IC50 of less than 100 nM. Work on `CC1(O)CCCCc2oc(S(=O)(=O)NC(=O)Nc3c4c(cc5c3CCC5)CCC4)cc21` (stereo not shown) [Compound 24, N-((1,2,3,5,6,7-hexahydro-s-indacen-4-yl)carbamoyl)-4-hydroxy-4-methyl-5,6,7,8-tetrahydro-4H-cyclohepta[b]furan-2-sulfonamide] yielded an IC50 of less than 100 nM. With `O=C(Nc1c2c(cc3c1CCC3)CCC2)NS(=O)(=O)c1cc2c(o1)CCCCC2O` (stereo not shown) [Compound 25, N-((1,2,3,5,6,7-hexahydro-s-indacen-4-yl)carbamoyl)-4-hydroxy-5,6,7,8-tetrahydro-4H-cyclohepta[b]furan-2-sulfonamide] the IC50 was less than 100 nM. Molecule `CC(C)C1Cc2oc(S(=O)(=O)NC(=O)Nc3c4c(cc5c3CCC5)CCC4)cc2C(C)(O)C1` (stereo not shown) [Compound 27, N-((1,2,3,5,6,7-hexahydro-s-indacen-4-yl)carbamoyl)-4-hydroxy-6-isopropyl-4-methyl-4,5,6,7-tetrahydrobenzofuran-2-sulfonamide] has an IC50 of less than 100 nM. Molecule `CC(C)C1Cc2oc(S(=O)(=O)NC(=O)Nc3c4c(cc5c3CCC5)CCC4)cc2C(O)C1` (stereo not shown) [Compound 28, N-((1,2,3,5,6,7-hexahydro-s-indacen-4-yl)carbamoyl)-4-hydroxy-6-isopropyl-4,5,6,7-tetrahydrobenzofuran-2-sulfonamide] has an IC50 of 100 to 1000 nM. `O=C(Nc1c2c(cc3c1CCC3)CCC2)NS(=O)(=O)c1cc2c(o1)CCCc1c[nH]nc1-2` [Compound 33, N-((1,2,3,5,6,7-hexahydro-s-indacen-4-yl)carbamoyl)-2,4,5,6-tetrahydrofuro[2′,3′:6,7]cyclohepta[1,2-c]pyrazole-8-sulfonamide] showed an IC50 of 100 to 1000 nM. `O=C(Nc1c2c(cc3c1CCC3)CCC2)NS(=O)(=O)c1cc2c(o1)CCC/C2=N\O` [Compound 35, (E)-N-((1,2,3,5,6,7-hexahydro-s-indacen-4-yl)carbamoyl)-4-(hydroxyimino)-4,5,6,7-tetrahydrobenzofuran-2-sulfonamide] showed an IC50 of less than 100 nM. In the case of `O=C(Nc1c2c(cc3c1CCC3)CCC2)NS(=O)(=O)c1cc2c(o1)CCC/C2=N/O` [Compound 36, (Z)—N-((1,2,3,5,6,7-hexahydro-s-indacen-4-yl)carbamoyl)-4-(hydroxyimino)-4,5,6,7-tetrahydrobenzofuran-2-sulfonamide], the IC50 is reported as less than 100 nM. Molecule `O=C(Nc1c2c(cc3c1CCC3)CCC2)NS(=O)(=O)c1cc2c(o1)CCCNC2=O` [Compound 38, N-((1,2,3,5,6,7-hexahydro-s-indacen-4-yl)carbamoyl)-4-oxo-5,6,7,8-tetrahydro-4H-furo[3,2-c]azepine-2-sulfonamide] has an IC50 of 100 to 1000 nM. With `O=C(Nc1c2c(c(Br)c3c1CCC3)CCC2)NS(=O)(=O)c1cc2c(o1)CCCC2O` (stereo not shown) [Compound 39, N-((8-bromo-1,2,3,5,6,7-hexahydro-s-indacen-4-yl)carbamoyl)-4-hydroxy-4,5,6,7-tetrahydrobenzofuran-2-sulfonamide] the IC50 was less than 100 nM. With `CC1(O)CCCc2oc(S(=O)(=O)NC(=O)Nc3c4c(c(Br)c5c3CCC5)CCC4)cc21` (stereo not shown) [Compound 40, N-((8-bromo-1,2,3,5,6,7-hexahydro-s-indacen-4-yl)carbamoyl)-4-hydroxy-4-methyl-4,5,6,7-tetrahydrobenzofuran-2-sulfonamide] the IC50 was less than 100 nM. With `CO/N=C1/CCCc2oc(S(=O)(=O)NC(=O)Nc3c4c(cc5c3CCC5)CCC4)cc21` [Compound 41, (Z)-N-((1,2,3,5,6,7-hexahydro-s-indacen-4-yl)carbamoyl)-4-(methoxyimino)-4,5,6,7-tetrahydrobenzofuran-2-sulfonamide] the IC50 was 100 to 1000 nM. `CC(=O)NC1CCCc2oc(S(=O)(=O)NC(=O)Nc3c4c(c(Br)c5c3CCC5)CCC4)cc21` (stereo not shown) [Compound 42, N-(2-(N-((8-bromo-1,2,3,5,6,7-hexahydro-s-indacen-4-yl)carbamoyl)sulfamoyl)-4,5,6,7-tetrahydrobenzofuran-4-yl)acetamide] showed an IC50 of 100 to 1000 nM. For `O=C(Nc1c2c(c(Cl)c3c1CCC3)CCC2)NS(=O)(=O)c1cc2c(o1)CCCC2O` (stereo not shown) [Compound 43, N-((8-chloro-1,2,3,5,6,7-hexahydro-s-indacen-4-yl)carbamoyl)-4-hydroxy-4,5,6,7-tetrahydrobenzofuran-2-sulfonamide], the IC50 was less than 100 nM. With `CC1(O)CCCc2oc(S(=O)(=O)NC(=O)Nc3c4c(c(Cl)c5c3CCC5)CCC4)cc21` (stereo not shown) [Compound 44, N-((8-chloro-1,2,3,5,6,7-hexahydro-s-indacen-4-yl)carbamoyl)-4-hydroxy-4-methyl-4,5,6,7-tetrahydrobenzofuran-2-sulfonamide] the IC50 was less than 100 nM. For `CCC1(O)CCCc2oc(S(=O)(=O)NC(=O)Nc3c4c(cc5c3CCC5)CCC4)cc21` (stereo not shown) [Compound 45, 4-ethyl-N-((1,2,3,5,6,7-hexahydro-s-indacen-4-yl)carbamoyl)-4-hydroxy-4,5,6,7-tetrahydrobenzofuran-2-sulfonamide], the IC50 was less than 100 nM. In the case of `O=C(Nc1c2c(c(F)c3c1CCC3)CCC2)NS(=O)(=O)c1cc2c(o1)CCCC2O` (stereo not shown) [Compound 46, N-((8-fluoro-1,2,3,5,6,7-hexahydro-s-indacen-4-yl)carbamoyl)-4-hydroxy-4,5,6,7-tetrahydrobenzofuran-2-sulfonamide], the IC50 is reported as less than 100 nM. Molecule `CC1(O)CCCc2oc(S(=O)(=O)NC(=O)Nc3c4c(c(F)c5c3CCC5)CCC4)cc21` (stereo not shown) [Compound 47, N-((8-fluoro-1,2,3,5,6,7-hexahydro-s-indacen-4-yl)carbamoyl)-4-hydroxy-4-methyl-4,5,6,7-tetrahydrobenzofuran-2-sulfonamide] has an IC50 of less than 100 nM. For `CC1CC(=NO)c2cc(S(=O)(=O)NC(=O)Nc3c4c(cc5c3CCC5)CCC4)oc2C1` (stereo not shown) [Compound 48, N-((1,2,3,5,6,7-hexahydro-s-indacen-4-yl)carbamoyl)-4-(hydroxyimino)-6-methyl-4,5,6,7-tetrahydrobenzofuran-2-sulfonamide], the IC50 was 100 to 1000 nM.
